Experimental findings from US8691859B2 (priority 2005, dated 2014) are described below.

Test [1] concerns B. anthracis GFP sterne spores. Briefly: microbe, parasite or virus in culture. It counts as cell-based. To be noted: Bacillus anthracis, read-out: MIC B. anthracis spores.
For test [2], the system named is B. anthracis GFP sterne vegetative cells. Briefly: microbe, parasite or virus in culture. The class given is cell-based. To be noted: Bacillus anthracis, read-out: MIC B. anthracis vegetative cells.

Values after ≈ are worked out from the molar mass of the structure shown.

`Cc1cc(N)c2cc(NC(=O)Nc3ccc4nc(C)cc(N)c4c3)ccc2n1` [NSC 12155, 1,3-bis(4-amino-2-methyl-quinolin-6-yl)urea]: the MIC in test [1] amounted to 4.45 µg/mL (≈ 11.9 µM); in test [2], 17.8 µg/mL (≈ 47.8 µM).
For `Cc1cc2nc(C=Cc3nc4cc(C)c(C)cc4[nH]3)[nH]c2cc1C` [NSC 92833, 2-[2-(5,6-dimethyl-1H-benzoimidazol-2-yl)ethenyl]-5,6-dimethyl-1H-benzoimidazole] the same measures were more than 12.6 µg/mL and more than 12.6 µg/mL.
As to `C(=Cc1nc2ccccc2[nH]1)c1nc2ccccc2[nH]1` [NSC 103699, 2-[2-(1H-benzoimidazol-2-yl)ethenyl]-1H-benzoimidazole], the MIC in test [1] and in test [2] was more than 10.4 µg/mL each time.
Consider `OCCn1c(C=Cc2nc3ccccc3[nH]2)nc2ccccc21` [NSC 103701, 2-[2-[2-(1H-benzoimidazol-2-yl)ethenyl]benzoimidazol-1-yl]ethanol], for which the MIC in test [1] and in test [2] was more than 12.2 µg/mL throughout.
On to `CC(O)C(=O)O.N=C(N)c1ccc(-c2cc3ccc(C(=N)N)cc3s2)cc1` [NSC 240890, 2-(4-carbamimidoylphenyl)benzothiophene-6-carboximidamide; 2-hydroxypropanoic acid], for which the MIC in test [1] and in test [2] was more than 19 µg/mL throughout.
Turning to `N=C(N)c1ccc(-c2cc3cc(C(=N)N)ccc3s2)cc1` [NSC 240891, 2-(4-carbamimidoylphenyl)benzothiophene-5-carboximidamide], the MIC in test [1] and in test [2] was more than 14.7 µg/mL throughout.
Turning to `N=C(N)c1ccc(-c2nc3ccc(C(=N)N)cc3[nH]2)cc1` [NSC 240894, 2-(4-carbamimidoylphenyl)-3H-benzoimidazole-5-carboximidamide], the MIC in test [1] and in test [2] was more than 14 µg/mL in each case.
Regarding `N=C(N)c1ccc(-n2cc3cc(C(=N)N)ccc3n2)cc1` [NSC 240895, 2-(4-carbamimidoylphenyl)indazole-5-carboximidamide], the MIC in test [1] and in test [2] was more than 14 µg/mL in each case.
As to `N=C(N)c1ccc(-n2nc3ccc(C(=N)N)cc3n2)cc1` [NSC 240896, 2-(4-carbamimidoylphenyl)benzotriazole-5-carboximidamide], the MIC in test [1] and in test [2] was more than 14.1 µg/mL in each case.
For the molecule `N=C(N)c1ccc(-c2[nH]c3cc(C(=N)N)ccc3c2-c2ccccc2)cc1` [NSC 240897, 2-(4-carbamimidoylphenyl)-3-phenyl-1H-indole-6-carboximidamide], the MIC in test [1] turned out to be 8.52 µg/mL (≈ 24.1 µM); in test [2], 17 µg/mL (≈ 48.2 µM).
Turning to `N=C(N)c1ccc(-c2cc(-c3ccc(C(=N)N)cc3)on2)cc1` [NSC 240900, 4-[3-(4-carbamimidoylphenyl)oxazol-5-yl]benzenecarboximidamide], the MIC in test [1] and in test [2] was more than 15.1 µg/mL in each case.
Take `N=C(N)c1ccc2oc(/C=C/c3cc4cc(C(=N)N)ccc4s3)cc2c1` [NSC 266472, 2-[(E)-2-(5-carbamimidoylbenzothiophen-2-yl)ethenyl]benzofuran-5-carboximidamide]: the MIC in test [1] worked out at 8.66 µg/mL (≈ 24 µM); in test [2], 17.3 µg/mL (≈ 48.1 µM).
For `N=C(N)c1ccc2nc(/C=C/c3nc4ccc(C(=N)N)cc4[nH]3)[nH]c2c1` [NSC 266475, 2-[(E)-2-(5-carbamimidoyl-3H-benzoimidazol-2-yl)ethenyl]-3H-benzoimidazole-5-carboximidamide] the same measures were more than 16.7 µg/mL and more than 16.7 µg/mL.
For `N=C(N)c1ccc2oc(CCc3cc4cc(C(=N)N)ccc4o3)cc2c1` [NSC 266477, 2-[2-(5-carbamimidoylbenzofuran-2-yl)ethyl]benzofuran-5-carboximidamide] the same measures were more than 16.8 µg/mL and more than 16.8 µg/mL.
For `Nc1ccc(C2=Cc3ccc(N)cc3S2(=O)=O)cc1` [NSC 266482, 2-(4-aminophenyl)-1,1-dioxo-benzothiophen-6-amine] the same measures were more than 10.9 µg/mL and more than 10.9 µg/mL.
Consider `c1cc(-c2cc3ccc(C4=NCCN4)cc3[nH]2)ccc1C1=NCCN1` [NSC 278995, 6-(4,5-dihydro-1H-imidazol-2-yl)-2-[4-(4,5-dihydro-1H-imidazol-2-yl)phenyl]-1H-indole], for which the MIC in test [1] and in test [2] was more than 16.1 µg/mL each time.
For `c1cc(-c2cc3ccc(C4=NCCN4)cc3s2)ccc1C1=NCCN1` [NSC 278996, 2-[2-[4-(4,5-dihydro-1H-imidazol-2-yl)phenyl]benzothiophen-6-yl]-4,5-dihydro-1H-imidazole], the MIC in test [1] and in test [2] was more than 16.8 µg/mL throughout.
`C(=C\c1cc2cc(C3=NCCN3)ccc2o1)/c1cc2cc(C3=NCCN3)ccc2o1` [NSC 278999, 2-[2-[(E)-2-[5-(4,5-dihydro-1H-imidazol-2-yl)benzofuran-2-yl]ethenyl]benzofuran-5-yl]-4,5-dihydro-1H-imidazole]: the MIC in test [1] and in test [2] was more than 18.8 µg/mL in each case.
Regarding `O=C(Nc1ccc(C2=NCCN2)cc1)c1cc2cc(C3=NCCN3)ccc2o1` [NSC 290111, 5-(4,5-dihydro-1H-imidazol-2-yl)-N-[4-(4,5-dihydro-1H-imidazol-2-yl)phenyl]benzofuran-2-carboxamide], the MIC in test [1] was 17.8 µg/mL (≈ 47.8 µM); in test [2], more than 17.8 µg/mL.
For `N=C(N)c1ccc2cc(/C=C/c3cc4ccc(C(=N)N)cc4o3)oc2c1` [NSC 294199, 2-[(E)-2-(6-carbamimidoylbenzofuran-2-yl)ethenyl]benzofuran-6-carboximidamide] the same measures were 8.34 µg/mL (≈ 24.2 µM) and 16.7 µg/mL (≈ 48.4 µM).
The corresponding values for `N=C(N)c1ccc2oc(/C=C/c3cc4ccc(C(=N)N)cc4o3)cc2c1` [NSC 294202, 2-[(E)-2-(5-carbamimidoylbenzofuran-2-yl)ethenyl]benzofuran-6-carboximidamide] are more than 16.7 µg/mL and more than 16.7 µg/mL.
The corresponding values for `N=C(N)c1ccc(NC(=O)c2cc3ccc(C(=N)N)cc3o2)cc1` [NSC 294207, 6-carbamimidoyl-N-(4-carbamimidoylphenyl)benzofuran-2-carboxamide] are more than 15.8 µg/mL and more than 15.8 µg/mL.
With `O=C(Nc1ccc(C2=NCCN2)cc1)c1cc2ccc(C3=NCCN3)cc2o1` [NSC 294208, 6-(4,5-dihydro-1H-imidazol-2-yl)-N-[4-(4,5-dihydro-1H-imidazol-2-yl)phenyl]benzofuran-2-carboxamide], the MIC in test [1] and in test [2] was more than 17.8 µg/mL each time.
`C(=C\c1cc2ccc(C3=NCCN3)cc2o1)/c1cc2ccc(C3=NCCN3)cc2o1` [NSC 294494, 2-[2-[(E)-2-[6-(4,5-dihydro-1H-imidazol-2-yl)benzofuran-2-yl]ethenyl]benzofuran-6-yl]-4,5-dihydro-1H-imidazole]: the MIC in test [1] and in test [2] was 18.8 µg/mL (≈ 47.3 µM) each time.
With `N=C(N)c1ccc(-c2[nH]c3cc(C(=N)N)ccc3c2N)cc1` [NSC 300509, 3-amino-2-(4-carbamimidoylphenyl)-1H-indole-6-carboximidamide], the MIC in test [1] and in test [2] was more than 14.6 µg/mL each time.
In the case of `N=C(N)c1ccc(-c2ccc(-c3ccc(C(=N)N)cc3)s2)cc1` [NSC 300510, 4-[5-(4-carbamimidoylphenyl)thiophen-2-yl]benzenecarboximidamide], the MIC was 15.7 µg/mL (≈ 49.1 µM) in test [1] and more than 15.7 µg/mL in test [2].
For `N=C(N)c1ccc(/C=C/c2cc3cc(C(=N)N)ccc3o2)cc1` [NSC 300512, 2-[(E)-2-(4-carbamimidoylphenyl)ethenyl]benzofuran-5-carboximidamide] the same measures were more than 15.1 µg/mL and more than 15.1 µg/mL.
In the case of `c1cc(-c2cc3cc(C4=NCCN4)ccc3s2)ccc1C1=NCCN1` [NSC 308569, 2-[2-[4-(4,5-dihydro-1H-imidazol-2-yl)phenyl]benzothiophen-5-yl]-4,5-dihydro-1H-imidazole], the MIC in test [1] and in test [2] was more than 16.8 µg/mL throughout.
`C(=C\c1cc2cc(C3=NCCN3)ccc2o1)/c1ccc(C2=NCCN2)cc1` [NSC 308570, 2-[2-[(E)-2-[4-(4,5-dihydro-1H-imidazol-2-yl)phenyl]ethenyl]benzofuran-5-yl]-4,5-dihydro-1H-imidazole]: the MIC in test [1] and in test [2] was 17.2 µg/mL (≈ 48.1 µM) in each case.
Turning to `C(/C=C/c1cc2cc(C3=NCCN3)ccc2o1)=C\c1ccc(C2=NCCN2)cc1` [NSC 308573, 2-[2-[(1E,3E)-4-[4-(4,5-dihydro-1H-imidazol-2-yl)phenyl]buta-1,3-dienyl]benzofuran-5-yl]-4,5-dihydro-1H-imidazole], the MIC in test [1] and in test [2] was 18.2 µg/mL (≈ 47.6 µM) in each case.
In the case of `C(=C\c1cc2cc(C3=NCCN3)ccc2s1)/c1ccc(C2=NCCN2)cc1` [NSC 317883, 2-[2-[(E)-2-[4-(4,5-dihydro-1H-imidazol-2-yl)phenyl]ethenyl]benzothiophen-5-yl]-4,5-dihydro-1H-imidazole], the MIC in test [1] and in test [2] was 17.8 µg/mL (≈ 47.8 µM) each time.
As for `c1cc2cc(-c3cc4ccc(C5=NCCN5)cc4[nH]3)[nH]c2cc1C1=NCCN1` [NSC 330688, 6-(4,5-dihydro-1H-imidazol-2-yl)-2-[6-(4,5-dihydro-1H-imidazol-2-yl)-1H-indol-2-yl]-1H-indole], the results for the MIC in test [1] and in test [2] were 0.551 µg/mL (≈ 1.5 µM) and 1.1 µg/mL (≈ 2.99 µM), respectively.
Consider `N=C(N)c1ccc2c(c1)=NC(=C(N)N)C=2` [NSC 330689, 2-(diaminomethylidene)indole-6-carboximidamide], for which the MIC in test [1] and in test [2] was more than 11 µg/mL each time.
For the molecule `C(=C\c1cc2ccc(C3=NCCN3)cc2[nH]1)/c1ccc(Oc2ccc(C3=NCCN3)cc2)cc1` [NSC 330690, 6-(4,5-dihydro-1H-imidazol-2-yl)-2-[(E)-2-[4-[4-(4,5-dihydro-1H-imidazol-2-yl)phenoxy]phenyl]ethenyl]-1H-indole], the MIC in test [1] and in test [2] was 2.6 µg/mL (≈ 5.81 µM) in each case.
Consider `NC(N)=Nc1ccc(-c2cc3cc(N=C(N)N)ccc3s2)cc1` [NSC 341910, 2-[2-[4-(diaminomethylideneamino)phenyl]benzothiophen-5-yl]guanidine], for which the MIC in test [1] was 15.9 µg/mL (≈ 48.9 µM); in test [2] it was more than 15.9 µg/mL.
